Measured values from patent US12129258B2, “Diaryl macrocyclic compound and pharmaceutical composition, and use thereof” (PrimeGene (Beijing) Co., Ltd., priority 2018, dated 2024).
Read-outs that look alike come from different tables or passages of the source.

Tests used:
TRKA [1] = biological target: T1, TRKA (Homo sapiens (Human), UniProt P04629); assay: Mobility shift assay, TRKA kinase; format: biochemical; details: ATP 47.8 μM
Source text: (§1) The operation is described as follows:
(§2) Conversion %_Sample: conversion rate of sample;

ROS1 = ROS1 (Homo sapiens (Human), UniProt P08922); assay: Mobility shift assay, ROS1 kinase; format: biochemical; details: ATP 26.7 μM
Chain of ROS1 (P08922 28-2347): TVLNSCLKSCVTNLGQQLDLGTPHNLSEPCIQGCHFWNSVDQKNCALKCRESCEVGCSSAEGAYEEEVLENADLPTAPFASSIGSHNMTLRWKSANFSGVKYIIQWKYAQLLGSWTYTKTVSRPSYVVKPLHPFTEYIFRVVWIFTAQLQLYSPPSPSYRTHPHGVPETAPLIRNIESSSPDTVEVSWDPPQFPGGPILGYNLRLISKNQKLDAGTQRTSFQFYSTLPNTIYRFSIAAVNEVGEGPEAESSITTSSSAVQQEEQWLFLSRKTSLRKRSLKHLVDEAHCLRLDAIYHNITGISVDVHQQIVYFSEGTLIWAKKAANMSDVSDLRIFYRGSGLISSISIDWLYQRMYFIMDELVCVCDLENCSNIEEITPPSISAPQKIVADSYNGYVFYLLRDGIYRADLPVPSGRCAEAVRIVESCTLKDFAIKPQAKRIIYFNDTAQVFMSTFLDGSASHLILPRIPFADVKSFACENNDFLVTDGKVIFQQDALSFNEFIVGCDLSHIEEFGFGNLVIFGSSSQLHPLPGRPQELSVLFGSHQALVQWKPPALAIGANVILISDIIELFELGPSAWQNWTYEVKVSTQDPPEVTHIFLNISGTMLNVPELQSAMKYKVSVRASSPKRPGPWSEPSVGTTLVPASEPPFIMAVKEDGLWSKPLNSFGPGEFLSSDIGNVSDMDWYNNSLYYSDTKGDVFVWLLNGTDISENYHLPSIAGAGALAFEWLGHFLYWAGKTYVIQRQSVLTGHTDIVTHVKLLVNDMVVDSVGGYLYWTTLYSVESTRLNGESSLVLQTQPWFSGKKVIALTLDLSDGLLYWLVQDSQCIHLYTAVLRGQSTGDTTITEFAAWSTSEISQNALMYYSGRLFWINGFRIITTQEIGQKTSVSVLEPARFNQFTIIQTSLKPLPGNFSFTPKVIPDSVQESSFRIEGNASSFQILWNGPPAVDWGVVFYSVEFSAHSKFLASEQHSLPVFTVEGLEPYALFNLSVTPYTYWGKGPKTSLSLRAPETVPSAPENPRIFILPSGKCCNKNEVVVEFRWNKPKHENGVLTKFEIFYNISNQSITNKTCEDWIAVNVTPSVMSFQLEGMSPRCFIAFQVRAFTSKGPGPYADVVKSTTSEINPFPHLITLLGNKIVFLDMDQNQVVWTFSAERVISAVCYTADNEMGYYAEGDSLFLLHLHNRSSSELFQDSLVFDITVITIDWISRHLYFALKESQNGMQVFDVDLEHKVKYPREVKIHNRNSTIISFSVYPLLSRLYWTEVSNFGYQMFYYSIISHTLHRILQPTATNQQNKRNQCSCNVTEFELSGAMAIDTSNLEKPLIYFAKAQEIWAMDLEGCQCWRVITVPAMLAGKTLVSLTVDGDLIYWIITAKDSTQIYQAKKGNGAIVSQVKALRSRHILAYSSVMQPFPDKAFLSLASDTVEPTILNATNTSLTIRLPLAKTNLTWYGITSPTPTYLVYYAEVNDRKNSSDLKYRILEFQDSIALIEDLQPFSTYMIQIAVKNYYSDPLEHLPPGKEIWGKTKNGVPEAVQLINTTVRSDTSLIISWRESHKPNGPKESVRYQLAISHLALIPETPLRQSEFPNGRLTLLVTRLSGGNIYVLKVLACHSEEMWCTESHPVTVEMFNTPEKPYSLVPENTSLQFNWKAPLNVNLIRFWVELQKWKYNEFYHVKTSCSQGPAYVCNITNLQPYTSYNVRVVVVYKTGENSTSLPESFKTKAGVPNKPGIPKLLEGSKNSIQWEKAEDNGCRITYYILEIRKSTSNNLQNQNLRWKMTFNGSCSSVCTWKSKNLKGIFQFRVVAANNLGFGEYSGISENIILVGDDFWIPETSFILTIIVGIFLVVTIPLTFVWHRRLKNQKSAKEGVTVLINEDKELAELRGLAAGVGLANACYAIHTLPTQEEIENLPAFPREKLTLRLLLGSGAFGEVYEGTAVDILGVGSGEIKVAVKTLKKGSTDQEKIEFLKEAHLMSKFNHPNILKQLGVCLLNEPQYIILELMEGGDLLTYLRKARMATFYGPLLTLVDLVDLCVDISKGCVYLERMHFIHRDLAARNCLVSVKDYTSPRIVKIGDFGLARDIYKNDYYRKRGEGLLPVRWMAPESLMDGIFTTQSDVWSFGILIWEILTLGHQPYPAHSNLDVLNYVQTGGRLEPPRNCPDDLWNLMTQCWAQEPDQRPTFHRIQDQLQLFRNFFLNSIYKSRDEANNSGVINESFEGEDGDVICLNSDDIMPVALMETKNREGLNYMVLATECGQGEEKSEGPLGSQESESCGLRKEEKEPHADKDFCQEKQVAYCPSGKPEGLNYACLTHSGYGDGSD
Source text: as §1, §2

TRKB = TRKB (Homo sapiens (Human), UniProt Q16620); assay: Mobility shift assay, TRKB kinase; details: read-out: TRKB IC50, ATP 71.2 μM
Chain of TRKB (Q16620 32-822): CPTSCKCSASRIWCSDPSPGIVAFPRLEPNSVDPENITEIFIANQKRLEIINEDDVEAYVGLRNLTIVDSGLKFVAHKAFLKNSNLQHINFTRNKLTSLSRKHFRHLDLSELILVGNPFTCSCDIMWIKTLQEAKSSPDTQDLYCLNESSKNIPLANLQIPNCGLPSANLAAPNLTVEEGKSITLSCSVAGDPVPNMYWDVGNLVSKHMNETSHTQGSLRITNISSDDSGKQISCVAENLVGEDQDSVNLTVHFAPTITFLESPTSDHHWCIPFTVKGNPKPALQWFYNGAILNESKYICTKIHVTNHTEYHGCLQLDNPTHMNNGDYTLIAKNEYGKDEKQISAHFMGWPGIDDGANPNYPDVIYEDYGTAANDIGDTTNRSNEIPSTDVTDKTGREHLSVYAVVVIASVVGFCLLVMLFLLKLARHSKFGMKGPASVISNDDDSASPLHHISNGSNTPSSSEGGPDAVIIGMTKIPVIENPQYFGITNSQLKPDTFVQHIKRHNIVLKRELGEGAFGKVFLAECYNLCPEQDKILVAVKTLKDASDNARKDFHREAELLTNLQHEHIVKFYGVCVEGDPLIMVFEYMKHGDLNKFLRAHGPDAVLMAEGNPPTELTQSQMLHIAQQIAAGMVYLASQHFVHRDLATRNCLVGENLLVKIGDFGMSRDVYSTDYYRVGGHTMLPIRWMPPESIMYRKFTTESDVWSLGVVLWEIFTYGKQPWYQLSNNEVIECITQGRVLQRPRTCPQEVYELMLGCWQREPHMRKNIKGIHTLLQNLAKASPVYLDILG
Description: (§8) The inhibitory activity of compounds on TRKA, TRKB, TRKC and ROS1 kinase was analyzed with Mobility shift assay. The screening platform is MSA based microfluidic chip technology, which applies the basic concept of capillary electrophoresis to microfluidic environment. The substrate used in the experiment is a poly-peptide labeled with fluorescent. Under the catalysis of enzyme in the reaction system, the substrate is transformed into a product, with the charge changed accordingly. MSA technology could detect the substrate and the product with different charge separately.
(§9) The compound powder was dissolved in 100% DMSO (Sigma, Cat. D8418-1l) to prepare a 10 mM storage solution. […] The reaction was carried out at room temperature for 30 min/40 min/20 min/20 min respectively. After the reaction was terminated, the conversion rate was read by Caliper EZ Reader II.
(§10) Conversion %_Min: mean value of negative control, representing the conversion rate without enzyme activity;
(§11) Conversion %_Max: mean value of positive control, which represents the conversion rate reading without compound inhibition.
(§12) Taking the log value of concentration as X axis and the percentage inhibition rate as Y axis, the dose response curve was fitted by the analysis software GraphPad Prism 5, thus the IC50 value of each compound on enzyme activity inhibition was obtained.

TRKC = TRKC (Homo sapiens (Human), UniProt Q16288); assay: Mobility shift assay, TRKC kinase; details: read-out: TRKC IC50, ATP 44.4 μM
Chain of TRKC (Q16288 other isoform, or with tags, fused parts or gaps isoform Q16288-3): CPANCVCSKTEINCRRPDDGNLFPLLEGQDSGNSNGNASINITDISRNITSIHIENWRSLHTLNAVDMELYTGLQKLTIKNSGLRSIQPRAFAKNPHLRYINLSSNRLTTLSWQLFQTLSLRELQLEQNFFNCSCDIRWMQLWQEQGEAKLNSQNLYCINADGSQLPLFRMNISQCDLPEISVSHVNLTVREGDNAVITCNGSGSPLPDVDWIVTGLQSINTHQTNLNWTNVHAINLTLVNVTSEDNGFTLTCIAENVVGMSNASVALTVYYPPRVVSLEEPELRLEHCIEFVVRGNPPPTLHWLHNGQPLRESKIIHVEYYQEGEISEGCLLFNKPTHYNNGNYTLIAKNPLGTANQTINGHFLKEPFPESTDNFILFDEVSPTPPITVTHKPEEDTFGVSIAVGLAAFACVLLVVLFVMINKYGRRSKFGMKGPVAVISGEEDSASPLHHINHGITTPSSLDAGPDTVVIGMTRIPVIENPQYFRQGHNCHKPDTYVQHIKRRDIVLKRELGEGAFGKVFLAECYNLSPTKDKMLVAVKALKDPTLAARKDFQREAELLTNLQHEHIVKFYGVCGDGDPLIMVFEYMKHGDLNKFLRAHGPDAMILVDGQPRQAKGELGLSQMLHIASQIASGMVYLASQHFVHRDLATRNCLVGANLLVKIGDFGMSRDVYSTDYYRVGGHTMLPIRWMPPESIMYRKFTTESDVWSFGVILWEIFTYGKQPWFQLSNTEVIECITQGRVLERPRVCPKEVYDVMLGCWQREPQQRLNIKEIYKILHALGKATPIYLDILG
Description: as §8, §9, §10, §11, §12

Ba/F3 ETV6-NTRK3-WT = assay: Cell proliferation inhibition (CellTiter-Glo), Ba/F3 ETV6-NTRK3-WT; format: cell-based; details: Mus musculus, BaF3, 72 h, read-out: IC50 proliferation Ba/F3 ETV6-NTRK3-WT
Ba/F3 ETV6-NTRK2-G639R = assay: Cell proliferation inhibition (CellTiter-Glo), Ba/F3 ETV6-NTRK2-G639R; format: cell-based; details: Mus musculus, BaF3, 72 h, read-out: IC50 proliferation Ba/F3 ETV6-NTRK2-G639R
Description: (§3) 4. Inhibitory Effect of Compounds on the Proliferation of TRK Fusion and Mutant Stable Cell Lines (IC50)
(§4) Six cell lines including Ba/F3 LMNA-NTRK1-WT, Ba/F3 LMNA-NTRK1-G595R, Ba/F3 ETV6-NTRK2-WT, Ba/F3 ETV6-NTRK2-G639R, Ba/F3 ETV6-NTRK2-G639R and Ba/F3 ETV6-NTRK3-G623R were used in this experiment. For the six cell lines, the maximum test concentration of the compound was 1 μM, 1 μM, 10 μM, […], 1 μM and 10 μM, were 3.16-fold gradient diluted to obtain 9 samples.
(§5) The operation is described briefly as follows:
(§6) The cells in logarithmic growth phase were harvested to ensure that the cell viability was above 90%. 3000 cell/well were seeded in 96-well plate (Corning, Cat #3603). The cells were incubated overnight with 5% CO2, 95% humidity at 37° C. Then each well containing the cells of the 96-well plate was added the compound solutions, 3 wells for each compound solution, and continued to incubate for another 72 hrs. Then CellTiter-Glo® kit (Promega, Cat #G7572) was used to do the detection. First, the CTG reagent was melted and the cell plate was balanced to room temperature. The same volume of CTG solution was added into each well and vibrated on the shaker for 5 minutes to lyse the cells. The cell plate was kept at room temperature for 20 minutes to stabilize the luminescent signal. The luminescent value was collected by SpectraMax microplate detector (MD, 2104-0010A). […] Cell survival rate (%)=(1umdrug−1ummedium)/(1umcell−lummedium)×100%

Ba/F3 LMNA-NTRK1-WT = assay: Cell proliferation inhibition (CellTiter-Glo), Ba/F3 LMNA-NTRK1-WT; format: cell-based; details: Mus musculus, BaF3, 72 h, test batch marked *
Source text: as §3
(§7) Six cell lines including Ba/F3 LMNA-NTRK1-WT, Ba/F3 LMNA-NTRK1-G595R, Ba/F3 ETV6-NTRK2-WT, Ba/F3 ETV6-NTRK2-G639R, Ba/F3 ETV6-NTRK2-G639R and Ba/F3 ETV6-NTRK3-G623R were used in this experiment.
as §5
as §6, with “3000 cell/well were seeded in 96-well plate (Corning, Cat #3603). The cells were incubated overnight with 5% CO2, 95% humidity at 37° C.” left out, “signal.” for “signal. The luminescent value was collected by SpectraMax microplate detector (MD, 2104-0010A).”

Ba/F3 ETV6-NTRK2-WT = assay: Cell proliferation inhibition (CellTiter-Glo), Ba/F3 ETV6-NTRK2-WT; format: cell-based; details: Mus musculus, BaF3, 72 h, read-out: IC50 proliferation Ba/F3 ETV6-NTRK2-WT
Description: as §3, §4, §5, §6

Ba/F3 LMNA-NTRK1-G595R = assay: Cell proliferation inhibition (CellTiter-Glo), Ba/F3 LMNA-NTRK1-G595R; format: cell-based; details: Mus musculus, BaF3, 72 h, test batch marked *
Source text: as §3, §7, §5
as §6, with “3000 cell/well were seeded in 96-well plate (Corning, Cat #3603). The cells were incubated overnight with 5% CO2, 95% humidity at 37° C.” left out, “signal.” for “signal. The luminescent value was collected by SpectraMax microplate detector (MD, 2104-0010A).”

TRKA [2] = biological target: T1, TRKA; assay: HTRF kinase activity assay, TRKA; format: biochemical; details: 90 μM ATP
Description: The IC50 values of the compounds were calculated using XLFIT5 (IDBS) software.

Ba/F3 LMNA-NTRK3-G623R = assay: Cell proliferation inhibition (CellTiter-Glo), Ba/F3 LMNA-NTRK3-G623R; format: cell-based; details: Mus musculus, BaF3, 72 h, read-out: IC50 proliferation Ba/F3 LMNA-NTRK3-G623R
[3] = Blood-to-brain distribution in rats; format: in vivo; details: male, SD, rat, 10 mg/kg single oral gavage
Description: 7. Blood-to-Brain Distribution
Male SD rats were grouped, each group having 12 rats. Each group was given the compound of Examples (10 mg/kg) by single oral gavage. The animals were fasted overnight from 10 hours before administration to 4 hours after administration. The rats were killed at 0.5, 1, 4 and 12 hours after administration, and blood and brain tissues were collected. The samples were centrifuged at 4000 rpm at 4° C. for 5 min and plasma was transferred into the centrifuge tube and stored at −80° C. until analysis. The extract from the plasma extracted by protein precipitation was analyzed by LC/MS/MS.

[4] = Pharmacokinetic analysis in rats; format: in vivo, Male SD rats; details: male, SD, plasma; rat, PO, 5 mg/kg
Description: 6. Pharmacokinetic Analysis
Male SD rats were grouped, each group having 3 rats. […] Animals were fasted overnight from 10 hours before administration to 4 hours after administration. Blood samples were collected at 0.25, 0.5, 1, 2, 4, 8 and 24 hours after administration in the oral group and at 0.083, 0.25, 0.5, 1, 2, 4, 8 and 24 hours after injection in the intravenous group. After isoflurane anesthesia, 0.3 ml whole blood collected through the fundus vein plexus was put into the heparin anticoagulant tube. The sample was centrifuged at 4° C. at 4000 rpm for 5 min. The plasma was transferred into the centrifuge tube and stored at −80° C. until analysis. The extract from the plasma extracted by protein precipitation was analyzed by LC/MS/MS.

T1 sequence (P04629 33-796): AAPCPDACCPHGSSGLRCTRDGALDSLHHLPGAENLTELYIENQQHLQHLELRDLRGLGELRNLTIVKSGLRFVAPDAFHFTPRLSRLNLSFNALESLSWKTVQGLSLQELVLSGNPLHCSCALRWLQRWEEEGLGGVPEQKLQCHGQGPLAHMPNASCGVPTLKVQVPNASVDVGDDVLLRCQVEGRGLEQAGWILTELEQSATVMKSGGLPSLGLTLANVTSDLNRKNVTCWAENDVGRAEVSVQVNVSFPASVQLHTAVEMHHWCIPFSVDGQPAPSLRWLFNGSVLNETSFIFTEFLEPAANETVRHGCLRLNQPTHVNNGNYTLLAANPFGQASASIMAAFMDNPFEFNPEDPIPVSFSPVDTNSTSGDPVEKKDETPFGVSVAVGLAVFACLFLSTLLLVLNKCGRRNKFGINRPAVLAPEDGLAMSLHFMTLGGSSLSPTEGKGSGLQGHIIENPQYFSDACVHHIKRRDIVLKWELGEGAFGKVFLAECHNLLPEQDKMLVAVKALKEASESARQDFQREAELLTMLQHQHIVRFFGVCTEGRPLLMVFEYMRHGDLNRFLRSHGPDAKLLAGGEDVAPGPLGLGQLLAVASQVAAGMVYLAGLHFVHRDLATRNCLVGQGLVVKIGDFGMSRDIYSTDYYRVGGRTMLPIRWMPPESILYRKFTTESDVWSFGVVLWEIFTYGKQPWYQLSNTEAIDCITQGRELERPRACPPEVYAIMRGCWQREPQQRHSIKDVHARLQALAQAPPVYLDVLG

Structure (SMILES)	IC50 (TRKA [1]) [nM]	IC50 (ROS1) [nM]	IC50 (TRKB) [nM]	IC50 (TRKC) [nM]	also measured
C[C@@H]1c2cc(F)ccc2OCCOC(=O)c2cnn3ccc(nc23)N1C [Example 23, (R,1^3E,1^4E)-4^5-fluoro-2,3-dimethyl-5,8-dioxa-2-aza-1(5,3)-pyrazolo[1,5-a]pyrimidina-4(1,2)-benzenacyclononaphan-9-one]	0.39	4.8	0.48	0.63	
C[C@@H]1COc2ccc(F)cc2[C@@H](C)Nc2ccn3ncc(c3n2)C(=O)O1 [Example 6, (1^3E,1^4E,3R,7R)-4^5-fluoro-3,7-dimethyl-5,8-dioxa-2-aza-1(5,3)-pyrazolo[1,5-a]pyrimidina-4(1,2)-benzenacyclononaphan-9-one]	0.75	0.78	1.2	1.2	
O=C(Nc1cnn2ccc(N3CCC[C@@H]3c3cc(F)ccc3F)nc12)N1CC[C@H](O)C1 [LOXO-101, reference compound]					IC50 (Ba/F3 ETV6-NTRK3-WT; 72 hrs, test batch marked *): 6.8 nM; IC50 (Ba/F3 ETV6-NTRK2-G639R; 72 hrs, test batch marked *): 8180 nM; IC50 (Ba/F3 LMNA-NTRK1-WT): 47.4 nM; IC50 (Ba/F3 ETV6-NTRK2-WT; 72 hrs, test batch marked *): 75.3 nM; IC50 (Ba/F3 LMNA-NTRK1-G595R): 2170 nM
C[C@H]1Nc2ccn3ncc(c3n2)C(=O)OCC(F)(F)Oc2ccc(F)cc21 [Example 24, (R,1^3E,1^4E)-4^5,6,6-trifluoro-3-methyl-5,8-dioxa-2-aza-1(5,3)-pyrazolo[1,5-a]pyrimidina-4(1,2)-benzenacyclononaphan-9-one]	0.56	0.29	0.6	0.75	
Cc1cc(Nc2ncc(Cl)c(Nc3ccccc3S(=O)(=O)C(C)C)n2)c(OC(C)C)cc1C1CCNCC1 [Ceritinib]					IC50 (TRKA [2]): 182 nM
C[C@H]1Nc2ccn3ncc(c3n2)C(=O)OCCSc2ccc(F)cc21 [Example 25, (R,1^3E,1^4E)-4^5-fluoro-3-methyl-8-oxa-5-thia-2-aza-1(5,3)-pyrazolo[1,5-a]pyrimidina-4(1,2)-benzenacyclononaphan-9-one]	1.1	1.2	1.6	1.1	
C[C@H]1Nc2ccn3ncc(c3n2)C(=O)OCCOc2ccc(F)cc21 [Example 13, (R,1^3E,1^4E)-4^5-fluoro-3-methyl-5,8-dioxa-2-aza-1(5,3)-pyrazolo[1,5-a]pyrimidina-4(1,2)-benzenacyclononaphan-9-one]	0.62	1.9	0.9	0.73	
CCc1cc2c(cc1N1CCC(N3CCOCC3)CC1)C(C)(C)c1[nH]c3cc(C#N)ccc3c1C2=O [Alectinib]					IC50 (TRKA [2]): 60.4 nM
C[C@H]1CNC(=O)c2cnn3ccc(nc23)N[C@H](C)c2cc(F)ccc2O1 [TPX-0005, reference compound]					IC50 (Ba/F3 LMNA-NTRK3-G623R): 9 nM; IC50 (Ba/F3 ETV6-NTRK3-WT): 0.8 nM; IC50 (Ba/F3 ETV6-NTRK2-G639R): 86.6 nM; Kp ([3]; brain/plasma, AUC0-inf ratio): 0.17; AUC(0-inf) ([3]; brain, read-out: AUC0-inf Brain): 2.35 µM·h; AUC(0-inf) ([3]; plasma, read-out: AUC0-inf Plasma): 13.9 µM·h; AUC(0-inf) [4]: 2950 ng·h/mL; Cmax [4]: 503 ng/mL; Tmax [4]: 1.33 h; half-life [4]: 3.55 h; IC50 (Ba/F3 ETV6-NTRK2-WT): 2.5 nM
C[C@H]1COC(=O)c2cnn3ccc(nc23)N[C@H](C)c2cc(F)ccc2S1 [Example 9, (1^3E,1^4E,3R,6S)-4^5-fluoro-3,6-dimethyl-8-oxa-5-thia-2-aza-1(5,3)-pyrazolo[1,5-a]pyrimidina-4(1,2)-benzenacyclononaphan-9-one]	0.59	0.54	0.86	0.76	
C[C@H]1Oc2cc(cnc2N)-c2c(nn(C)c2C#N)CN(C)C(=O)c2ccc(F)cc21 [Lorlatinib]					IC50 (TRKA [2]): 6.2 nM
